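Compound exposure: 48 hours, 5 concentrations, 96-well plates. GI50 = concentration required for 50% inhibition of growth.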 The source made the active and inactive calls. Rule as the data show it: active = GI50 up to about 1.1 µM and inactive = higher.
Tests used:
Test in all cases: growth of human tumour cells (NCI), 48 h
HCC 2998 = system: HCC 2998
SNB-19 = system: SNB-19
CCRF-CEM = system: CCRF-CEM
HOP-62 = system: HOP-62
A498 = system: A498
Malme-3M = system: Malme-3M
NCI/ADR-RES = system: NCI/ADR-RES
NCI-H522 = system: NCI-H522
Hs-578T = system: Hs-578T
RXF 393 = system: RXF 393
EKVX = system: EKVX
SF-295 = system: SF-295
PC-3 = system: PC-3
OVCAR-5 = system: OVCAR-5
BT-549 = system: BT-549
OVCAR-4 = system: OVCAR-4
A549 = system: A549
IGROV-1 = system: IGROV-1
COLO 205 = system: COLO 205
NCI-H460 = system: NCI-H460
SF-268 = system: SF-268
CAKI-1 = system: CAKI-1
ACHN = system: ACHN
HCT-116 = system: HCT-116
SK-MEL-2 = system: SK-MEL-2
SK-MEL-5 = system: SK-MEL-5
DU-145 = system: DU-145
HL-60 = system: HL-60
MDA-N = system: MDA-N
NCI-H23 = system: NCI-H23
U-251 = system: U-251
SN12C = system: SN12C
786-0 = system: 786-0
OVCAR-3 = system: OVCAR-3
SK-MEL-28 = system: SK-MEL-28
HOP-92 = system: HOP-92
T47D = system: T47D
SNB-75 = system: SNB-75
UACC-62 = system: UACC-62
MDA-MB-435 = system: MDA-MB-435
HCT-15 = system: HCT-15
TK-10 = system: TK-10
LOX IMVI = system: LOX IMVI
HT-29 = system: HT-29
UACC-257 = system: UACC-257
SR = system: SR
RPMI-8226 = system: RPMI-8226
SW-620 = system: SW-620
M14 = system: M14
KM12 = system: KM12
MCF7 = system: MCF7
MDA-MB-231 = system: MDA-MB-231
UO-31 = system: UO-31
OVCAR-8 = system: OVCAR-8
SF-539 = system: SF-539
MOLT-4 = system: MOLT-4
SK-OV-3 = system: SK-OV-3
NCI-H226 = system: NCI-H226
K562 = system: K562

## COc1ccc(C2N(c3ccc(F)c([N+](=O)[O-])c3)C(=O)N3C(c4ccc(OC)cc4)N(c4ccc(F)c([N+](=O)[O-])c4)C(=O)N23)cc1 (configuration not stated)
HCC 2998
  GI50: > 100 µM (inactive)
SNB-19
  GI50: > 100 µM (inactive)
CCRF-CEM
  GI50: > 100 µM (inactive)
HOP-62
  GI50: > 100 µM (inactive)
A498
  GI50: > 100 µM (inactive)
Malme-3M
  GI50: > 100 µM (inactive)
NCI/ADR-RES
  GI50: > 100 µM (inactive)
NCI-H522
  GI50: > 100 µM (inactive)
Hs-578T
  GI50: > 100 µM (inactive)
RXF 393
  GI50: > 100 µM (inactive)
EKVX
  GI50: > 100 µM (inactive)
SF-295
  GI50: > 100 µM (inactive)
PC-3
  GI50: > 100 µM (inactive)
OVCAR-5
  GI50: > 100 µM (inactive)
BT-549
  GI50: > 100 µM (inactive)
OVCAR-4
  GI50: > 100 µM (inactive)
A549
  GI50: > 100 µM (inactive)
IGROV-1
  GI50: > 100 µM (inactive)
COLO 205
  GI50: > 100 µM (inactive)
NCI-H460
  GI50: > 100 µM (inactive)
SF-268
  GI50: > 100 µM (inactive)
CAKI-1
  GI50: > 100 µM (inactive)
ACHN
  GI50: > 100 µM (inactive)
HCT-116
  GI50: > 100 µM (inactive)
SK-MEL-2
  GI50: > 100 µM (inactive)
SK-MEL-5
  GI50: > 100 µM (inactive)
DU-145
  GI50: > 100 µM (inactive)
HL-60
  GI50: > 100 µM (inactive)
MDA-N
  GI50: > 100 µM (inactive)
NCI-H23
  GI50: > 100 µM (inactive)
U-251
  GI50: > 100 µM (inactive)
SN12C
  GI50: > 100 µM (inactive)
786-0
  GI50: > 100 µM (inactive)
OVCAR-3
  GI50: > 100 µM (inactive)
SK-MEL-28
  GI50: > 100 µM (inactive)
HOP-92
  GI50: 23.1 µM (inactive)
T47D
  GI50: > 100 µM (inactive)
SNB-75
  GI50: > 100 µM (inactive)
UACC-62
  GI50: > 100 µM (inactive)
MDA-MB-435
  GI50: > 100 µM (inactive)
HCT-15
  GI50: > 100 µM
TK-10
  GI50: > 100 µM (inactive)
LOX IMVI
  GI50: > 100 µM (inactive)
HT-29
  GI50: > 100 µM (inactive)
UACC-257
  GI50: > 100 µM (inactive)
SR
  GI50: > 100 µM (inactive)
RPMI-8226
  GI50: > 100 µM (inactive)
SW-620
  GI50: > 100 µM (inactive)
M14
  GI50: 65.9 µM (inactive)
KM12
  GI50: > 100 µM (inactive)
MCF7
  GI50: > 100 µM (inactive)
MDA-MB-231
  GI50: 57.1 µM (inactive)
UO-31
  GI50: > 100 µM (inactive)
OVCAR-8
  GI50: > 100 µM (inactive)
SF-539
  GI50: > 100 µM (inactive)

## N#C/C(=C\NC(=S)c1ccncc1)c1nc2ccccc2s1
HCC 2998
  GI50: 21.7 µM (inactive)
SNB-19
  GI50: > 100 µM (inactive)
HOP-62
  GI50: > 100 µM (inactive)
MOLT-4
  GI50: 31.2 µM (inactive)
A498
  GI50: > 100 µM (inactive)
NCI/ADR-RES
  GI50: > 100 µM (inactive)
NCI-H522
  GI50: > 100 µM (inactive)
Hs-578T
  GI50: > 100 µM (inactive)
RXF 393
  GI50: > 100 µM (inactive)
EKVX
  GI50: 67.1 µM (inactive)
SF-295
  GI50: > 100 µM (inactive)
PC-3
  GI50: > 100 µM (inactive)
OVCAR-5
  GI50: > 100 µM (inactive)
BT-549
  GI50: > 100 µM (inactive)
OVCAR-4
  GI50: > 100 µM (inactive)
A549
  GI50: > 100 µM (inactive)
IGROV-1
  GI50: > 100 µM (inactive)
COLO 205
  GI50: > 100 µM (inactive)
NCI-H460
  GI50: 68.7 µM (inactive)
SF-268
  GI50: > 100 µM (inactive)
CAKI-1
  GI50: > 100 µM (inactive)
ACHN
  GI50: > 100 µM (inactive)
HCT-116
  GI50: > 100 µM (inactive)
SK-MEL-2
  GI50: 82.2 µM (inactive)
SK-MEL-5
  GI50: > 100 µM (inactive)
DU-145
  GI50: > 100 µM (inactive)
HL-60
  GI50: > 100 µM (inactive)
MDA-N
  GI50: > 100 µM (inactive)
SK-OV-3
  GI50: > 100 µM (inactive)
NCI-H23
  GI50: 51.2 µM (inactive)
U-251
  GI50: 98.4 µM (inactive)
SN12C
  GI50: > 100 µM (inactive)
NCI-H226
  GI50: > 100 µM (inactive)
786-0
  GI50: > 100 µM (inactive)
OVCAR-3
  GI50: 43.4 µM (inactive)
SK-MEL-28
  GI50: > 100 µM (inactive)
HOP-92
  GI50: > 100 µM (inactive)
T47D
  GI50: 37.9 µM (inactive)
SNB-75
  GI50: 68.1 µM (inactive)
K562
  GI50: > 100 µM (inactive)
UACC-62
  GI50: > 100 µM (inactive)
MDA-MB-435
  GI50: > 100 µM (inactive)
HCT-15
  GI50: > 100 µM
TK-10
  GI50: 65.2 µM (inactive)
LOX IMVI
  GI50: > 100 µM (inactive)
HT-29
  GI50: > 100 µM (inactive)
UACC-257
  GI50: 30.9 µM (inactive)
SR
  GI50: 74.6 µM (inactive)
RPMI-8226
  GI50: > 100 µM (inactive)
SW-620
  GI50: > 100 µM (inactive)
M14
  GI50: > 100 µM (inactive)
KM12
  GI50: > 100 µM (inactive)
MCF7
  GI50: 76.9 µM (inactive)
MDA-MB-231
  GI50: 39.6 µM (inactive)
UO-31
  GI50: > 100 µM (inactive)
OVCAR-8
  GI50: > 100 µM (inactive)
SF-539
  GI50: > 100 µM (inactive)
